US7285703B2, “Plant like starches and the method of making them in hosts” (BASF Plant Science GmbH, priority 1998, dated 2007)

Experiments:
[1] = target: T1, maize starch synthase SSI-1 (STSI-1), full length SSI (583 amino acids), N-terminus CVAELSREGP (SEQ ID NO:64) (Zea mays, UniProt O49064); test: ADPGlc kinetics of starch synthase SSI-1; type: biochemical; conditions: 5 mg/ml amylopectin as primer, 37° C.
T1 sequence (O49064 with tags, fused parts or gaps): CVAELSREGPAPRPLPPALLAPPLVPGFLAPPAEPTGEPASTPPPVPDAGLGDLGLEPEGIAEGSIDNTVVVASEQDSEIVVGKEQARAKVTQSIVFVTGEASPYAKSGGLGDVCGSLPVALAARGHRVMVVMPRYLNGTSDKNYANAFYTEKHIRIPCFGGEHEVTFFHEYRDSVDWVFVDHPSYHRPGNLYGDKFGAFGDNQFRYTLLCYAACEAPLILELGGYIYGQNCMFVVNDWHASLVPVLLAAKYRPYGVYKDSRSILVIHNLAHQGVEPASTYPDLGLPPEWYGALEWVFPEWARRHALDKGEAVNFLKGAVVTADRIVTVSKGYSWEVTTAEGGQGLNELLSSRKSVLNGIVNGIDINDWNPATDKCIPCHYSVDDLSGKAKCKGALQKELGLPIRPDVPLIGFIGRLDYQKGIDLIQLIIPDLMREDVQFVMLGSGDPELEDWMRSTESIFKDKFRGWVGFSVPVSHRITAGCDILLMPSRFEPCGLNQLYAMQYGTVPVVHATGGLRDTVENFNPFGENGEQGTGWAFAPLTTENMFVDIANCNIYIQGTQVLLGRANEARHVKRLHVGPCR
Text: (§1) FIG. 58. SSI-1, SSI-2, and SSI-3 construct design. Three forms of SSI were constructed in the pET expression (see Methods). pExs10a encodes SSI-1, the full length maize SSI (583 amino acids) which has the N-terminal sequence CVAELSREGP (SEQ ID NO:64). pExs8 encodes a truncated SSI, SSI-2, with amino acids # 8-52 deleted from the N-terminus of SSI-1 and which has the N-terminal sequence CVAELSR/DLG (SEQ ID NO:65). pExs1d encodes the most truncated form of SSI, SSI-3, with the first 93 amino acids deleted from SSI-1 and which has the N-terminal sequence SIVFVTGE (SEQ ID NO:66). A depiction of the waxygene, encoding GBSS, which has the N-terminal sequence ASAGMNW (SEQ ID NO:67), is also included for comparison. The amino acid motif KS/TGGL (SEQ ID NO:9), the putative binding site for ADGPGlc, in indicated by the triangles. The KS/TGGL (SEQ ID NO:9) motif is located 18 amino acids from the N-terminus in GBSS, while the motif is 106 amino acids from the N-terminus in maize SSI. Drawing not to scale.
(§2) 5 mL of supernatant were used to assay STS and SBE activities as previously described (Preiss) with minor modification. […] The unincorporated [^14C]-ADPGlc was separated with Dowex anion exchange column (200-400 mesh, Sigma Chemical Co.). […] SBE activity was determined by phosphorylase stimulation assay. One unit of activity is defined as 1 mmol Glc incorporated into the a-glucan per min at. […]

[2] = target: T2, maize starch synthase SSI-3 (STSI-3), N-terminally truncated SSI, first 93 amino acids of SSI-1 deleted, N-terminus SIVFVTGE (SEQ ID NO:66) (Zea mays, UniProt O49064); test: ADPGlc kinetics of starch synthase SSI-3; type: biochemical; conditions: 5 mg/ml amylopectin as primer, 37° C.
T2 sequence (O49064 with tags, fused parts or gaps): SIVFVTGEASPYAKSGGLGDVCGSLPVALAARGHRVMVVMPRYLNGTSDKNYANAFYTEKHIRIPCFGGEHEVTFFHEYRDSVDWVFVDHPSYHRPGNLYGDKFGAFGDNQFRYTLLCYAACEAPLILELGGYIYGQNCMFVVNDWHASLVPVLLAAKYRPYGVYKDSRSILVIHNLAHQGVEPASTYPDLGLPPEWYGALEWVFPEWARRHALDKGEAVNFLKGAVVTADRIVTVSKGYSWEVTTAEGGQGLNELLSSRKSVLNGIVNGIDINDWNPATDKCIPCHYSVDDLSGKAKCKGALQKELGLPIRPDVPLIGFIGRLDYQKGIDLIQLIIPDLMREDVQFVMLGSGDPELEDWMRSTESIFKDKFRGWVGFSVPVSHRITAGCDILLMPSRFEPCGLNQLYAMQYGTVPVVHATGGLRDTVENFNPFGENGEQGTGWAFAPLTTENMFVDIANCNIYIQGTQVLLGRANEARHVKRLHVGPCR
Text: as §1, §2

Nc1ncnc2c1ncn2[C@@H]1O[C@H](COP(=O)(O)OP(=O)(O)O[C@H]2O[C@H](CO)[C@@H](O)[C@H](O)[C@H]2O)[C@@H](O)[C@H]1O [ADPGlc, adenosine diphosphate glucose]
Vm (ADPGlc kinetics) ([1]; +citrate): 18.0 ± 0.5 μmol/min/mg protein | Vm (ADPGlc kinetics) ([1]; −citrate): 6.38 ± 0.88 μmol/min/mg protein | Vm (ADPGlc kinetics) ([2]; +citrate): 26.4 ± 1.4 μmol/min/mg protein | Vm (ADPGlc kinetics) ([2]; −citrate): 14.7 ± 1.3 μmol/min/mg protein
